Source: patent publication US20240174690A1, “ANNULATED 2-AMINO-3-CYANO THIOPHENES AND DERIVATIVES FOR THE TREATMENT OF CANCER” (BOEHRINGER INGELHEIM INTERNATIONAL GMBH, priority 2021, published 2024)
pIC50: −log10 of the molar value. Where two headings read alike, the source gives them in different places.

Tests used:
MKN1 cells = experiment: MKN1 CTG proliferation assay (120 h) (gastric cancer, wt amplified); format: cell-based; settings: Homo sapiens
Outline: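 MKN1 gastric cancer cells (200–500 per well, RPMI + 10% FCS) given a logarithmic compound dose series and incubated 120 h. Viability by CellTiter-Glo luminescence as percent of DMSO controls. IC50 by four-parameter non-linear regression.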

CYP3A4 = CYP3A4 (Homo sapiens (Human), UniProt P08684); experiment: Mechanism based inhibition of CYP3A4 assay (MBI 3A4); format: in vitro ADME; settings: hydroxy-midazolam formation after 30 min vs 0 min preincubation, 25 uM, human liver microsomes
Outline: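 Readout is hydroxy-midazolam formed after 30 min preincubation relative to 0 min, measured by LC/MS-MS after acetonitrile quench. Following preincubation, samples diluted 1:10 and incubated 15 min with midazolam substrate.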

GP2D cells = experiment: GP2D proliferation assay (120 h) (colorectal cancer, G12D); format: cell-based
Outline: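 500 cells/well in DMEM + GlutaMAX + 10% FCS, exposed to a logarithmic compound dose series (DMSO-normalized) for 120 h. Viability read by CellTiter-Glo luminescence as percent of DMSO control, with an untreated T0 read at dosing; IC50 from four-parameter non-linear regression.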

[1] = MKN-1, assay 3, CTG 120 h, read-out: MKN1 (assay 3) IC50
[2] = MKN-1, assay 2, CTG 120 h, read-out: MKN1 (assay 2) IC50

Chain of CYP3A4 (P08684 whole entry): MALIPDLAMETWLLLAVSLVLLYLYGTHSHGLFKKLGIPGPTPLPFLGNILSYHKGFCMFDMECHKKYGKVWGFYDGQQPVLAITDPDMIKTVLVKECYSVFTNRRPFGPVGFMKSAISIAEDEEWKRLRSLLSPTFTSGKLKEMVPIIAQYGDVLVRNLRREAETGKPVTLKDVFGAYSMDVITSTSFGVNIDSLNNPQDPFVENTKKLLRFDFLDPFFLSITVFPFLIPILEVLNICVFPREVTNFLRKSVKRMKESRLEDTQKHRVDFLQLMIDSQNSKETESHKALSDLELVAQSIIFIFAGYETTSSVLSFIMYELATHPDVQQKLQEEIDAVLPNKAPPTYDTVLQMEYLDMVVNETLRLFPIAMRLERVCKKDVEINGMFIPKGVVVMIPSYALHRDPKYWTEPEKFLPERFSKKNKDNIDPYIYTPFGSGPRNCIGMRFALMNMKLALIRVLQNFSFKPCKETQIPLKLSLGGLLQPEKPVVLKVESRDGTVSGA

SMILES	pIC50 (MKN1 cells; [1])	MBI 3A4 (CYP3A4)	pIC50 (GP2D cells)	also measured
C[C@H](Oc1cc(Cl)nc(-c2onc3c2CCC[C@@]32CCCc3sc(N)c(C#N)c32)n1)[C@@H]1CCCN1C [I-1]	5.76	–	–	–
C[C@H](Oc1nc(-c2onc3c2CCC[C@@]32CCCc3sc(N)c(C#N)c32)cc(N2CCNC3(CC3)C2)n1)[C@@H]1CCCN1C [I-2]	–	36%	–	–
C[C@H](Oc1cc(N2CCNC3(CCC3)C2)nc(-c2onc3c2CCC[C@@]32CCCc3sc(N)c(C#N)c32)n1)[C@@H]1CCCN1C [I-3]	–	51%	8.70	–
C[C@H](Oc1cc(-n2ccnc2)nc(-c2onc3c2CCC[C@@]32CCCc3sc(N)c(C#N)c32)n1)[C@@H]1CCCN1C [I-20]	–	85%	–	–
C[C@H](Oc1cc([C@@H]2CCOC2)nc(-c2onc3c2CCC[C@@]32CCCc3sc(N)c(C#N)c32)n1)[C@@H]1CCCN1C [I-22]	7.17	–	7.57	–
CO[C@@H]1C[C@@H]([C@H](C)Oc2cc(-c3ccn(C)n3)nc(-c3onc4c3CCC[C@@]43CCCc4sc(N)c(C#N)c43)n2)N(C)C1 [I-23]	–	57%	5.93	–
Cc1nc(-c2cc(O[C@@H](C)[C@@H]3CCCN3C)nc(-c3onc4c3CCC[C@@]43CCCc4sc(N)c(C#N)c43)n2)cs1 [I-24]	–	73%	–	–
C[C@H](Oc1cc(-c2ccn(CC(C)(C)O)n2)nc(-c2onc3c2CCC[C@@]32CCCc3sc(N)c(C#N)c32)n1)[C@@H]1CCCN1C [I-26]	–	71%	–	–
C[C@H](Oc1cc(-c2cnsc2)nc(-c2onc3c2CCC[C@@]32CCCc3sc(N)c(C#N)c32)n1)[C@@H]1CCCN1C [I-27]	6.40	50%	–	–
Cc1ccc(-c2cc(O[C@@H](C)[C@@H]3CCCN3C)nc(-c3onc4c3CCC[C@@]43CCCc4sc(N)c(C#N)c43)n2)cn1 [I-28]	5.89	77%	–	–
C[C@H](Oc1cc(-c2ccn(C[C@@H](C)O)n2)nc(-c2onc3c2CCC[C@@]32CCCc3sc(N)c(C#N)c32)n1)[C@@H]1CCCN1C [I-30]	–	77%	6.09	–
C[C@H](O)Cn1ccc(-c2cc(O[C@@H](C)[C@@H]3CCCN3C)nc(-c3onc4c3CCC[C@@]43CCCc4sc(N)c(C#N)c43)n2)n1 [I-31]	–	67%	6.23	–
C[C@H](Oc1cc(-n2ccnn2)nc(-c2onc3c2CCC[C@@]32CCCc3sc(N)c(C#N)c32)n1)[C@@H]1CCCN1C [I-32]	–	41%	–	–
C[C@H](Oc1cc(-c2ccn3ncnc3c2)nc(-c2onc3c2CCC[C@@]32CCCc3sc(N)c(C#N)c32)n1)[C@@H]1CCCN1C [I-33]	–	73%	–	–
C[C@H](Oc1cc(N2CCN(C)C3(COC3)C2)nc(-c2onc3c2CCC[C@@]32CCCc3sc(N)c(C#N)c32)n1)[C@@H]1C[C@@H](F)CN1C [I-37]	–	45%	7.62	–
C[C@H](Oc1nc(-c2onc3c2CCC[C@@]32CCCc3sc(N)c(C#N)c32)cc(N2CCN(C)C3(CC3)C2)n1)[C@@H]1CCCN1C [I-40]	–	37%	–	–
C[C@H](Oc1cc(N2CCN(C)C3(CC3)C2)nc(-c2onc3c2CCC[C@@]32CCCc3sc(N)c(C#N)c32)n1)[C@@H]1CCCN1C [I-41]	–	68%	8.10	–
C[C@H](Oc1cc(N2C[C@H](C)N(C)[C@@H](C)C2)nc(-c2onc3c2CCC[C@@]32CCCc3sc(N)c(C#N)c32)n1)[C@@H]1CCCN1C [I-43]	–	64%	6.84	–
C[C@H](Oc1cc(N2CCNC3(CC3)C2)nc(-c2onc3c2CCC[C@@]32CCCc3sc(N)c(C#N)c32)n1)[C@@H]1C[C@@H](F)CN1C [I-45]	–	–	8.70	pIC50 (MKN1 cells; [2]): 6.29
CO[C@H]1CCN(C)[C@@H]1[C@H](C)Oc1cc(-n2ccc(CC(=O)NC(C)C)n2)nc(-c2onc3c2CCC[C@@]32CCCc3sc(N)c(C#N)c32)n1 [I-48]	7.77	–	–	–
CO[C@H]1CCN(C)[C@@H]1[C@H](C)Oc1cc(-n2ccc(C(=O)N[C@@H]3CCOC3)n2)nc(-c2onc3c2CCC[C@@]32CCCc3sc(N)c(C#N)c32)n1 [I-53]	7.32	–	–	–
CO[C@H]1CCN(C)[C@@H]1[C@H](C)Oc1cc(-n2ccc(C(=O)N[C@H]3CCOC3)n2)nc(-c2onc3c2CCC[C@@]32CCCc3sc(N)c(C#N)c32)n1 [I-54]	7.59	–	–	–
COCCNC(=O)c1ccn(-c2cc(O[C@@H](C)[C@@H]3[C@@H](OC)CCN3C)nc(-c3onc4c3CCC[C@@]43CCCc4sc(N)c(C#N)c43)n2)n1 [I-55]	7.41	–	–	–
C[C@H](Oc1cc(-n2ccc(C(=O)N[C@H]3CCOC3)n2)nc(-c2onc3c2CCC[C@@]32CCCc3sc(N)c(C#N)c32)n1)[C@@H]1CCCN1C [I-57]	7.72	–	–	–
COCCNC(=O)c1ccn(-c2cc(O[C@@H](C)[C@@H]3CCCN3C)nc(-c3onc4c3CCC[C@@]43CCCc4sc(N)c(C#N)c43)n2)n1 [I-58]	7.77	–	–	pIC50 (MKN1 cells; MKN-1, assay 1, CTG 120 h, read-out: MKN1 (assay 1) IC50): 7.60

SMILES	pIC50 (MKN1 cells; [1])	MBI 3A4 (CYP3A4)	pIC50 (GP2D cells)	also measured
C[C@H](NC(=O)c1ccn(-c2cc(O[C@@H](C)[C@@H]3CCCN3C)nc(-c3onc4c3CCC[C@@]43CCCc4sc(N)c(C#N)c43)n2)n1)c1ccccn1 [I-59]	7.59	–	–	–
C[C@H](Oc1cc(-n2ccc(C(=O)N(C)C3COC3)n2)nc(-c2onc3c2CCC[C@@]32CCCc3sc(N)c(C#N)c32)n1)[C@@H]1CCCN1C [I-60]	7.49	–	–	–
C[C@H](Oc1cc(N2C[C@@H](N(C)C)[C@@H](F)C2)nc(-c2noc3c2CCC[C@@]32CCCc3sc(N)c(C#N)c32)n1)[C@@H]1CCCN1C [II-11]	–	–	7.11	–
C[C@H](Oc1cc(N2CCN(C)C3(COC3)C2)nc(-c2noc3c2CCC[C@@]32CCCc3sc(N)c(C#N)c32)n1)[C@@H]1CCCN1C [II-13]	–	70%	8.05	–
C[C@H](Oc1cc(N2CC[C@H](N3CCCC3)C2)nc(-c2noc3c2CCC[C@@]32CCCc3sc(N)c(C#N)c32)n1)[C@@H]1CCCN1C [II-14]	–	83%	8.22	–
C[C@H](Oc1cc(N2CC[C@H](N(C)C)C2)nc(-c2noc3c2CCC[C@@]32CCCc3sc(N)c(C#N)c32)n1)[C@@H]1C[C@@H](F)CN1C [II-15]	–	76%	8.05	–
C[C@H]1CN(C)CCCN1c1cc(N2CC[C@H](N(C)C)C2)nc(-c2noc3c2CCC[C@@]32CCCc3sc(N)c(C#N)c32)n1 [II-16]	–	–	7.25	–
C[C@@H]1CN(c2cc(O[C@@H](C)[C@@H]3C[C@@H](F)CN3C)nc(-c3noc4c3CCC[C@@]43CCCc4sc(N)c(C#N)c43)n2)CC2(CC2)N1 [II-17]	–	–	8.22	–
CCOC(=O)c1ccn(-c2cc(O[C@@H](C)[C@@H]3CCCN3C)nc(-c3noc4c3CCC[C@@]43CCCc4sc(N)c(C#N)c43)n2)n1 [II-23]	6.76	–	–	–
C[C@H](Oc1cc(-n2ccc(C(=O)NC3COC3)n2)nc(-c2noc3c2CCC[C@@]32CCCc3sc(N)c(C#N)c32)n1)[C@@H]1CCCN1C [II-25]	–	77%	–	–
C[C@H](Oc1cc(-n2ccc(C(=O)NC3(C)COC3)n2)nc(-c2noc3c2CCC[C@@]32CCCc3sc(N)c(C#N)c32)n1)[C@@H]1CCCN1C [II-26]	–	58%	–	–
C[C@H](Oc1cc(N2CCNC(C)(C)C2)nc(-c2noc3c2CCC[C@@]32CCCc3sc(N)c(C#N)c32)n1)[C@@H]1CCCN1C [II-32]	–	79%	8.30	–
CN[C@H]1CCN(c2cc(O[C@@H](C)[C@@H]3CCCN3C)nc(-c3noc4c3CCC[C@@]43CCCc4sc(N)c(C#N)c43)n2)C1 [II-35]	–	–	7.51	–
C[C@H](Oc1cc([C@@H]2CCN(C)C2)nc(-c2noc3c2CCC[C@@]32CCCc3sc(N)c(C#N)c32)n1)[C@@H]1CCCN1C [II-37]	–	81%	–	–
C[C@H](Oc1cc([C@H]2CCN(C)C2)nc(-c2noc3c2CCC[C@@]32CCCc3sc(N)c(C#N)c32)n1)[C@@H]1CCCN1C [II-38]	–	–	8.40	–
C[C@H](Oc1cc(N2CCNC3(CCC3)C2)nc(-c2noc3c2CCC[C@@]32CCCc3sc(N)c(C#N)c32)n1)[C@@H]1CCCN1C [II-40]	–	–	8.30	–
C[C@H](Oc1cc(-c2ccn([C@H]3CCCOC3)n2)nc(-c2noc3c2CCC[C@@]32CCCc3sc(N)c(C#N)c32)n1)[C@@H]1CCCN1C [II-42]	–	63%	–	–
C[C@H](Oc1cc(-c2ccn(C[C@@H]3CCCO3)n2)nc(-c2noc3c2CCC[C@@]32CCCc3sc(N)c(C#N)c32)n1)[C@@H]1CCCN1C [II-43]	–	70%	–	–
C[C@H](Oc1cc(C2CCCO2)nc(-c2noc3c2CCC[C@@]32CCCc3sc(N)c(C#N)c32)n1)[C@@H]1CCCN1C (some centres unmarked) [II-44]	–	71%	–	–
C[C@H](Oc1cc(N2CCNCC2)nc(-c2noc3c2CCC[C@@]32CCCc3sc(N)c(C#N)c32)n1)[C@@H]1CCCN1C [II-45]	5.83	–	–	–
C[C@H](Oc1nc(-c2noc3c2CCC[C@@]32CCCc3sc(N)c(C#N)c32)cc(N2C[C@H](C)N[C@@H](C)C2)n1)[C@@H]1CCCN1C [II-46]	–	91%	–	–
C[C@H](Oc1cc(N2CC[C@@H](N(C)C)C2)nc(-c2noc3c2CCC[C@@]32CCCc3sc(N)c(C#N)c32)n1)[C@@H]1CCCN1C [II-47]	–	–	6.98	–
C[C@H](Oc1cc(N2CCC(N(C)C)CC2)nc(-c2noc3c2CCC[C@@]32CCCc3sc(N)c(C#N)c32)n1)[C@@H]1CCCN1C [II-48]	–	84%	7.19	–
[2H]C([2H])([2H])N1C[C@H](F)C[C@H]1[C@H](C)Oc1cc(N2CCNC3(CC3)C2)nc(-c2noc3c2CCC[C@@]32CCCc3sc(N)c(C#N)c32)n1 [II-208]	6.61	–	–	pIC50 (MKN1 cells; [2]): 6.35
[2H]C([2H])([2H])N1C[C@H](F)C[C@H]1[C@H](C)Oc1cc(N2CCN(C)C3(CC3)C2)nc(-c2noc3c2CCC[C@@]32CCCc3sc(N)c(C#N)c32)n1 [II-209]	6.17	–	–	–
